Converted amounts (≈) assume the structure as drawn. The source made the active and inactive calls. The calls are words filed in the database; no cut-off is given here.
Assays:
Burkholderia cepacia [1] = experiment: Antimicrobial activity against Burkholderia cepacia BIG 118 after 18 hrs by micro dilution method; type: functional; conditions: BIG 118, 18 h
Staphylococcus aureus [2] = experiment: Antimicrobial activity against Staphylococcus aureus (Oxford) NCTC 6571 after 18 hrs by micro dilution method; type: functional; conditions: (Oxford) NCTC 6571, 18 h
Burkholderia cepacia [3] = experiment: Antimicrobial activity against Burkholderia cepacia BIG 117 after 18 hrs by micro dilution method; type: functional; conditions: BIG 117, 18 h
[4] = test system: Staphylococcus epidermidis; experiment: Antimicrobial activity against Staphylococcus epidermidis NCTC 11047 after 18 hrs by micro dilution method; type: functional; conditions: NCTC 11047, 18 h
Burkholderia cepacia [5] = experiment: Antimicrobial activity against Burkholderia cepacia BIG 120 after 18 hrs by micro dilution method; type: functional; conditions: BIG 120, 18 h
[6] = Inhibition of DNA gyrase (unknown origin) assessed as reduction in supercoiled form of DNA at 20 uM using ethidium bromide staining by gel electrophoresis
[7] = test system: Staphylococcus epidermidis; experiment: Antimicrobial activity against Staphylococcus epidermidis NCTC 2749 after 18 hrs by micro dilution method; type: functional; conditions: NCTC 2749, 18 h
Pseudomonas aeruginosa [8] = experiment: Ratio of compound MIC to ciprofloxacin MIC for Pseudomonas aeruginosa NCTC 10662 after 18 hrs by micro dilution method; type: functional
[9] = test system: Staphylococcus haemolyticus; experiment: Antimicrobial activity against Staphylococcus haemolyticus NCTC 11042 after 18 hrs by micro dilution method; type: functional; conditions: NCTC 11042, 18 h
Burkholderia cepacia [10] = experiment: Ratio of compound MIC to ciprofloxacin MIC for Burkholderia cepacia BIG 120 after 18 hrs by micro dilution method; type: functional
Staphylococcus aureus [11] = experiment: Ratio of compound MIC to ciprofloxacin MIC for Staphylococcus aureus BIG 52 after 18 hrs by micro dilution method; type: functional
Pseudomonas aeruginosa [12] = experiment: Antimicrobial activity against Pseudomonas aeruginosa BIG 63 after 18 hrs by micro dilution method; type: functional; conditions: BIG 63, 18 h
Burkholderia cepacia [13] = experiment: Antimicrobial activity against Burkholderia cepacia BIG 121 after 18 hrs by micro dilution method; type: functional; conditions: BIG 121, 18 h
[14] = test system: Stenotrophomonas maltophilia; experiment: Antimicrobial activity against Stenotrophomonas maltophilia N1119 after 18 hrs by micro dilution method; type: functional; conditions: N1119, 18 h
Escherichia coli [15] = experiment: Antimicrobial activity against Escherichia coli NCTC 10418 after 18 hrs by micro dilution method; type: functional; conditions: NCTC 10418, 18 h
Pseudomonas aeruginosa [16] = experiment: Antimicrobial activity against Pseudomonas aeruginosa BIG 37 clinical isolate after 18 hrs by micro dilution method; type: functional; conditions: BIG 37, 18 h
Pseudomonas aeruginosa [17] = experiment: Ratio of compound MIC to ciprofloxacin MIC for Pseudomonas aeruginosa BIG 63 after 18 hrs by micro dilution method; type: functional
Staphylococcus aureus [18] = experiment: Ratio of compound MIC to ciprofloxacin MIC for Staphylococcus aureus (Oxford) NCTC 6571 after 18 hrs by micro dilution method; type: functional
Staphylococcus aureus [19] = experiment: Antimicrobial activity against Staphylococcus aureus HG-1 after 18 hrs by micro dilution method; type: functional; conditions: HG-1, 18 h
Burkholderia cepacia [20] = experiment: Ratio of compound MIC to ciprofloxacin MIC for Burkholderia cepacia BIG 9 NCTC 10744 after 18 hrs by micro dilution method; type: functional
Burkholderia cepacia [21] = experiment: Ratio of compound MIC to ciprofloxacin MIC for Burkholderia cepacia BIG 117 after 18 hrs by micro dilution method; type: functional
Pseudomonas aeruginosa [22] = experiment: Ratio of compound MIC to ciprofloxacin MIC for Pseudomonas aeruginosa environmental isolate after 18 hrs by micro dilution method; type: functional
[23] = test system: Staphylococcus haemolyticus; experiment: Ratio of compound MIC to ciprofloxacin MIC for Staphylococcus haemolyticus NCTC 11042 after 18 hrs by micro dilution method; type: functional
[24] = test system: Stenotrophomonas maltophilia; experiment: Ratio of compound MIC to ciprofloxacin MIC for Stenotrophomonas maltophilia N1119 after 18 hrs by micro dilution method; type: functional
Staphylococcus aureus [25] = experiment: Ratio of compound MIC to ciprofloxacin MIC for Staphylococcus aureus NCTC 13142 after 18 hrs by micro dilution method; type: functional
[26] = test system: Staphylococcus epidermidis; experiment: Ratio of compound MIC to ciprofloxacin MIC for Staphylococcus epidermidis NCTC 2749 after 18 hrs by micro dilution method; type: functional
Serratia marcescens [27] = experiment: Ratio of compound MIC to ciprofloxacin MIC for Serratia marcescens BIG 11 NCTC 1377 after 18 hrs by micro dilution method; type: functional
Staphylococcus aureus [28] = experiment: Antimicrobial activity against Staphylococcus aureus BIG 52 after 18 hrs by micro dilution method; type: functional; conditions: BIG 52, 18 h
Escherichia coli [29] = experiment: Ratio of compound MIC to ciprofloxacin MIC for Escherichia coli NCTC 10418 after 18 hrs by micro dilution method; type: functional
Burkholderia cepacia [30] = experiment: Ratio of compound MIC to ciprofloxacin MIC for Burkholderia cepacia BIG 118 after 18 hrs by micro dilution method; type: functional
Serratia marcescens [31] = experiment: Antimicrobial activity against Serratia marcescens BIG 11 NCTC 1377 after 18 hrs by micro dilution method; type: functional; conditions: BIG 11 NCTC 1377, 18 h
[32] = test system: Stenotrophomonas maltophilia; experiment: Antimicrobial activity against Stenotrophomonas maltophilia N1124 after 18 hrs by micro dilution method; type: functional; conditions: N1124, 18 h
Staphylococcus aureus [33] = experiment: Antimicrobial activity against Staphylococcus aureus NCTC 13142 after 18 hrs by micro dilution method; type: functional; conditions: NCTC 13142, 18 h
Pseudomonas aeruginosa [34] = experiment: Antimicrobial activity against Pseudomonas aeruginosa environmental isolate BIG 39 after 18 hrs by micro dilution method; type: functional; conditions: BIG 39, 18 h
Escherichia coli [35] = experiment: Antimicrobial activity against Escherichia coli BIG 0046 after 18 hrs by micro dilution method; type: functional; conditions: BIG 0046, 18 h
[36] = test system: Stenotrophomonas maltophilia; experiment: Antimicrobial activity against Stenotrophomonas maltophilia N1127 after 18 hrs by micro dilution method; type: functional; conditions: N1127, 18 h
Pseudomonas aeruginosa [37] = experiment: Ratio of compound MIC to ciprofloxacin MIC for Pseudomonas aeruginosa BIG 37 clinical isolate after 18 hrs by micro dilution method; type: functional
Pseudomonas aeruginosa [38] = experiment: Antimicrobial activity against Pseudomonas aeruginosa NCTC 10662 after 18 hrs by micro dilution method; type: functional; conditions: NCTC 10662, 18 h
[39] = test system: Staphylococcus epidermidis; experiment: Ratio of compound MIC to ciprofloxacin MIC for Staphylococcus epidermidis NCTC 11047 after 18 hrs by micro dilution method; type: functional
Burkholderia cepacia [40] = experiment: Antimicrobial activity against Burkholderia cepacia BIG 9 NCTC 10744 after 18 hrs by micro dilution method; type: functional; conditions: BIG 9 NCTC 10744, 18 h
[41] = test system: Stenotrophomonas maltophilia; experiment: Ratio of compound MIC to ciprofloxacin MIC for Stenotrophomonas maltophilia N1127 after 18 hrs by micro dilution method; type: functional
Burkholderia cepacia [42] = experiment: Antimicrobial activity against Burkholderia cepacia BIG 119 after 18 hrs by micro dilution method; type: functional; conditions: BIG 119, 18 h
Staphylococcus aureus [43] = experiment: Antimicrobial activity against Staphylococcus aureus NCTC 13143 after 18 hrs by micro dilution method; type: functional; conditions: NCTC 13143, 18 h

Compound: O=C(O)CC(O)(CC(=O)N1CCN(c2cc3c(cc2F)c(=O)c(C(=O)O)cn3C2CC2)CC1)C(=O)O (stereo not given)
- MIC (Burkholderia cepacia [1]): 16 µg/mL (≈ 31.7 µM)
- MIC (Staphylococcus aureus [2]): 16 µg/mL (≈ 31.7 µM)
- MIC (Burkholderia cepacia [3]): 16 µg/mL (≈ 31.7 µM)
- MIC [4]: 16 µg/mL (≈ 31.7 µM)
- MIC (Burkholderia cepacia [5]): 16 µg/mL (≈ 31.7 µM)
- inhibition [6]: Active
- MIC [7]: 8 µg/mL (≈ 15.8 µM)
- Ratio (Pseudomonas aeruginosa [8]): 10.5
- MIC [9]: 16 µg/mL (≈ 31.7 µM)
- Ratio (Burkholderia cepacia [10]): 5.2
- Ratio (Staphylococcus aureus [11]): 20.9
- MIC (Pseudomonas aeruginosa [12]): 4 µg/mL (≈ 7.91 µM)
- MIC (Burkholderia cepacia [13]): > 36 µg/mL
- MIC [14]: 32 µg/mL (≈ 63.3 µM)
- MIC (Escherichia coli [15]): 0.25 µg/mL (≈ 0.495 µM)
- MIC (Pseudomonas aeruginosa [16]): 16 µg/mL (≈ 31.7 µM)
- Ratio (Pseudomonas aeruginosa [17]): 10.5
- Ratio (Staphylococcus aureus [18]): 41.8
- MIC (Staphylococcus aureus [19]): > 36 µg/mL
- Ratio (Burkholderia cepacia [20]): 20.9
- Ratio (Burkholderia cepacia [21]): 10.5
- Ratio (Pseudomonas aeruginosa [22]): 10.5
- Ratio [23]: 83.8
- Ratio [24]: 20.1
- Ratio (Staphylococcus aureus [25]): 10.5
- Ratio [26]: 20.9
- Ratio (Serratia marcescens [27]): 11
- MIC (Staphylococcus aureus [28]): 16 µg/mL (≈ 31.7 µM)
- Ratio (Escherichia coli [29]): 2.8
- Ratio (Burkholderia cepacia [30]): 41.8
- MIC (Serratia marcescens [31]): 1 µg/mL (≈ 1.98 µM)
- MIC [32]: > 36 µg/mL
- MIC (Staphylococcus aureus [33]): 8 µg/mL (≈ 15.8 µM)
- MIC (Pseudomonas aeruginosa [34]): 4 µg/mL (≈ 7.91 µM)
- MIC (Escherichia coli [35]): > 36 µg/mL
- MIC [36]: 32 µg/mL (≈ 63.3 µM)
- Ratio (Pseudomonas aeruginosa [37]): 5.2
- MIC (Pseudomonas aeruginosa [38]): 4 µg/mL (≈ 7.91 µM)
- Ratio [39]: 83.8
- MIC (Burkholderia cepacia [40]): 16 µg/mL (≈ 31.7 µM)
- Ratio [41]: 10.5
- MIC (Burkholderia cepacia [42]): > 36 µg/mL
- MIC (Staphylococcus aureus [43]): > 36 µg/mL

Compound: O=C(O)CC(O)(CC(=O)NCCCCC(=O)N1CCN(c2cc3c(cc2F)c(=O)c(C(=O)O)cn3C2CC2)CC1)C(=O)O (racemic)
- MIC (Burkholderia cepacia [1]): > 36 µg/mL
- MIC (Staphylococcus aureus [2]): > 36 µg/mL
- MIC (Burkholderia cepacia [3]): > 36 µg/mL
- MIC [4]: > 36 µg/mL
- MIC (Burkholderia cepacia [5]): > 36 µg/mL
- inhibition [6]: Active
- MIC [7]: 32 µg/mL (≈ 52.9 µM)
- Ratio (Pseudomonas aeruginosa [8]): 35
- MIC [9]: > 36 µg/mL
- MIC (Pseudomonas aeruginosa [12]): 16 µg/mL (≈ 26.5 µM)
- MIC (Burkholderia cepacia [13]): > 36 µg/mL
- MIC [14]: > 36 µg/mL
- MIC (Escherichia coli [15]): 1 µg/mL (≈ 1.65 µM)
- MIC (Pseudomonas aeruginosa [16]): > 36 µg/mL
- Ratio (Pseudomonas aeruginosa [17]): 35
- MIC (Staphylococcus aureus [19]): > 36 µg/mL
- Ratio (Burkholderia cepacia [20]): 35
- Ratio (Pseudomonas aeruginosa [22]): 35
- Ratio [26]: 70
- Ratio (Serratia marcescens [27]): 36.5
- MIC (Staphylococcus aureus [28]): > 36 µg/mL
- Ratio (Escherichia coli [29]): 8.8
- MIC (Serratia marcescens [31]): 4 µg/mL (≈ 6.62 µM)
- MIC [32]: > 36 µg/mL
- MIC (Staphylococcus aureus [33]): > 36 µg/mL
- MIC (Pseudomonas aeruginosa [34]): 16 µg/mL (≈ 26.5 µM)
- MIC (Escherichia coli [35]): > 36 µg/mL
- MIC [36]: > 36 µg/mL
- MIC (Pseudomonas aeruginosa [38]): 16 µg/mL (≈ 26.5 µM)
- MIC (Burkholderia cepacia [40]): 32 µg/mL (≈ 52.9 µM)
- MIC (Burkholderia cepacia [42]): > 36 µg/mL
- MIC (Staphylococcus aureus [43]): > 36 µg/mL
